Measurements: patent US11513109B2, “Biological toxicity test method for evaluating the ecological safety of advanced oxidation processes” (priority 2018, dated 2022)

Tested on: Koi (Cyprinus carpio haematopterus)
Test: Koi exposure toxicity test: liver homogenate antioxidative enzyme activity (SOD, CAT, GPx)
Format: in vivo
Conditions: experimental group 1 vs blank group
Protocol: Still further, four groups of identical experimental pools are established in S2. Each group of experimental pools is provided with 3 parallel groups. The size of each experimental pool is unified to 30 L. The water temperature of the experimental pool is 18° C. to 22° C. Each experimental pool is provided with an aerator. The first group of the experimental pools is the waste water control group, the second group is the waste water group, the third group is the tap water control group, and the fourth group is the tap water blank group. The four groups of experimental pools have same conditions except the addition of different water quality. 25 L of raw waste water, experimental waste water, control tap water, and blank tap water are sequentially added to the experimental pool of the waste water control group, the waste water experimental group, the tap water control group, and the […].
Still further, 20 selected Koi are put into each experimental pool in S3 for exposure to poison. The Koi used in the test are those domesticated with tap water and not poisoned by the contaminants. The duration of exposure is 96 h-110 h. During the period of exposure, half water is changed every day with water of same quality to maintain the water quality in a stable condition.
Further, the method in S4 is specifically: the Koi after exposure to poison in each group is dissected and liver is extracted, chopped, and formulated into a homogenate with the liver tissue and physiological saline according to weight (g): volume (mL)=1:9 and the activity of antioxidative enzymes in the homogenate is determined.
Still further, the antioxidative enzyme determined in S4 comprises superoxide dismutase, catalase, and glutathione peroxidase.
Still further, the biological indicators such as the determined enzyme activity described in S4 are determined using a kit, and 5 parallel group assays are set for each sample group.
S1: the waste water to be determined was collected (prepared), […]. […]

OO [H2O2]
produces oxidative stress: oxidative stress on the koi (SOD higher, GPx lower than blank group, not significant) (Example 1, oxidant in UV/H2O2) | oxidative stress on the Koi (SOD higher, GPx lower than blank group, not significant) (Example 3, oxidant in the ozone combined oxidation process) | oxidative stress on the Koi (SOD higher, GPx lower than blank group, not significant) (Example 4, oxidant in the wet oxidation process)
